Assay results as given in US20100152285A1, “Flavononol Renin Inhibitor Compounds and Methods of Use Thereof” (HerbalScience Group LLC, priority 2008, published 2010).

Tested on: monocrotaline induced hypertension in rats
Experiment: Monocrotaline-induced hypertension rat model, tail-cuff blood pressure and pulse
Assay type: in vivo, Sprague-Dawley rats
Protocol: Animal Care and Handeling. Sprague-Dawley rats (Charles River Laboratories, Wilmington, Mass.) 60 days old and weighing 140-160 g were utilized. Animals were kept in standard autoclaved rodent cages with ad libitum food (Harlan Teklad Irradiated Rodent Diet) and autoclaved water. The rats were housed on Harlan Tek-chip pelleted paper in static micro isolators maintained at 22° C., 60% relative humidity, and under a 12 h light cycle. The animals were kept at the facility for 5 days to get accustomed to the environment after the arrival from the vendor. All animal care procedures complied with the recommendations of the Guide for Care and Use of Laboratory Animals with respect to restraint, husbandry, surgical procedures, feed and fluid regulation, and veterinary care. Induction of hypertension and the treatment. Rats were injected subcutaneously with monocrotaline (MCT, 60 mg kg^−1) and monitored for 12 days for the development of pulmonary inflammation and initiation of the pulmonary hypertensive response. After the incubation period, Tristenonol aglycone (Cmp. 15 of the present invention) was administrated orally to the animals in three different doses (120, 90, and 60 mg kg^−1 body weights). Blood pressure (BP; Systolic and Diastolic) and heart beats were recorded three times a day 24, 48, and 72 h after administration of compound BP.
Test Articles and Animal Groups. Three doses of Tristenonol aglycone (Cmp 15 of the present invention) were tested. The animals were randomized before and grouped in to 10 animals per group. For positive controls used the commercially available drug Atenol® was used.
Rats were sorted into six groups of ten and treated according to the protocol in Table 1. […] All remaining groups were administered monocrotaline. […] Groups 3, 4 and 5 received Tristenonol aglycone (Cmp 15 of the present invention) at […], 90, and 60 mg respectively per kg body weight 12 days after induction of hypertension with monocrotaline. Positive Control Group 6 was given the commercial drug Atenol® at 120 mg kg^−1.
Systolic blood pressure, diastolic blood pressure and heart beats were recorded in the morning, afternoon and evening three times, 24, 48, and 72 h after Tristenonol aglycone (Cmp 15) and Atenol® administration.
Protocol for the Measurement of the Blood Pressure. A tail-cuff was placed on the tail to occlude the blood flow. Upon deflation a non-invasive blood pressure sensors, placed distal to the occlusion cuff, was utilized to monitor the blood pressure. Volume Pressure Recording. The volume pressure recording sensor utilizes a specially designed differential pressure transducer to non-invasively measure the blood volume in the tail. Volume pressure recording actually measured six blood pressure parameters simultaneously: systolic blood pressure, diastolic blood pressure, mean blood pressure, heart pulse rate, tail blood volume and tail blood flow. […] In addition, volume pressure recording was not dependent on the skin pigmentation of the animal. Dark-skinned animals have no negative effect on volume pressure recording measurements. Special attention was afforded to the length of the occlusion cuff with volume pressure recording in order to derive the most accurate blood pressure readings. Endpoint Measurements. Each animal was sacrificed when the animal reached the predetermined endpoint of being moribund or when the animals remained […]. The animals were observed and if found incapable of eating or drinking or if their body temperature were too low to sustain life, the animals were sacrificed. Treatment efficacy is determined from the reduction in systolic blood pressure, diastolic blood pressure and heart beats of the animal compared to the untreated control group. Toxicity and Necropsy Examination. Animals were weighed daily throughout the experiment. […]

[1] = monocrotaline 60 mg kg^−1 subcutaneously
[2] = 120 mg kg^−1 body weight, rats with monocrotaline

Row | SMILES | increase in Diastolic blood pressure in injected rats [1] | increase in Systolic blood pressure in injected rats [1] | increase in pulse rate in injected animals [1] | decrease in Diastolic blood pressure compared to untreated control [2] | reduction in pulse rate compared to untreated controls [2] | reduction of mean Systolic blood pressure compared to untreated animals (120 mg kg^−1 body weight, rats with monocrotaline, 24-72 h)
1 | C[C@H]1C(=O)O[C@@H]2CCN3CC=C(COC(=O)[C@](C)(O)[C@]1(C)O)[C@H]23 [Monocrotaline, monocrotaline] | 49-52% | 40-45% | 60-70% |  |  | 
2 | CC(C)NCC(O)COc1ccc(CC(N)=O)cc1 (stereo not drawn) [Atenol®] |  |  |  | 24-25% | 35-36.38% | 28%
